ChEMBL document CHEMBL2375309, “19-[(1'S,4'R)-4'-Hydroxy-1'-methoxy-2'-oxopentyl]geldanamycin, a natural geldanamycin analogue from Streptomyces hygroscopicus 17997” (J Nat Prod, 2013)
In brackets after ≈: the same amount, converted by molar mass.

Experiments:
HepG2 = assay: Cytotoxicity against human HepG2 cells by MTT assay; format: functional, cell-based
[1] = Aqueous solubility of the compound; format: physicochemical

solubility [1] [µg/mL] | Structure (SMILES) | IC50 (HepG2) [µM]
15400 (≈ 22.3 mM) | COC1=C2C[C@@H](C)C[C@H](OC)[C@H](O)[C@@H](C)/C=C(\C)[C@H](OC(N)=O)[C@@H](OC)/C=C\C=C(/C)C(=O)NC(=C([C@H](OC)C(=O)C[C@@H](C)O)C1=O)C2=O | 14.6
2 (≈ 0.00357 mM) | COC1=C2C[C@@H](C)C[C@H](OC)[C@H](O)[C@@H](C)/C=C(\C)[C@H](OC(N)=O)[C@@H](OC)/C=C\C=C(/C)C(=O)NC(=CC1=O)C2=O [GELDANAMYCIN] | 0.3
7700 (≈ 11.1 mM) | COC1=C2C[C@@H](C)C[C@H](OC)[C@H](O)[C@@H](C)/C=C(\C)[C@H](OC(N)=O)[C@@H](OC)CC/C=C(\C)C(=O)NC(=C([C@H](OC)C(=O)C[C@@H](C)O)C1=O)C2=O | 22.4
